# Source: patent publication US20240293579A1, “Composition Comprising Trim31 and Rhbdf2 for Treatment of NAFLD/NASH” (CHONGQING MEIPULAN TECHNOLOGY CO., LTD, priority 2021, published 2024)
# Counter-ions that a name gives are not always drawn. Like-named read-outs stand apart in the source and are kept apart here.
# Test system: TRIM31 mRNA
# Test: TRIM31 mRNA expression by RT-qPCR in PA/OA-induced L02 cells
# Type: cell-based, human
# Conditions: for fold induction at 100 µM: Homo sapiens
# Procedure: Palmitic acid/oleic acid (PA/OA) was used to induce the decrease of TRIM31 mRNA expression in human hepatocyte L02 cells. The cells were divided into control group and drug group. The drug group was treated with a concentration of 100 μmol/L compound, and the expression level of TRIM31 mRNA was detected by RT-qPCR. The expression level of TRIM31 mRNA in the drug group divided by that in the control group (Qdrug/Qctrl) was used to evaluate the ability of the compounds to promote TRIM31 expression. […]
# [1] = 100 μmol/L compound, PA/OA-induced L02 cells, RT-qPCR, read-out: Qdrug/Qctrl (TRIM31 mRNA expression level, drug group divided by control group)
# [2] = 100 μmol/L compound, PA/OA-induced L02 cells, RT-qPCR
# [3] = L02, read-out: Qdrug/Qctrl (TRIM31 mRNA expression level, drug group divided by control group)
Molecule,fold induction at 100 µM [1],"Qdrug/Qctrl (TRIM31 mRNA expression level, drug group divided by control group) [2] [fold]",also measured
CC1(C)[C@@H](O[C@H]2O[C@H](C(=O)O)[C@@H](O)[C@H](O)[C@H]2O[C@@H]2O[C@H](C(=O)O)[C@@H](O)[C@H](O)[C@H]2O)CC[C@]2(C)[C@H]3C(=O)C=C4[C@@H]5C[C@@](C)(C(=O)O)CC[C@]5(C)CC[C@@]4(C)[C@]3(C)CC[C@@H]12 [Glycyrrhizic Acid Monoammonium Salt],1.72,–,–
CC1(C)[C@@H](O[C@H]2O[C@H](C(=O)O)[C@@H](O)[C@H](O)[C@H]2O[C@@H]2O[C@H](C(=O)O)[C@@H](O)[C@H](O)[C@H]2O)CC[C@]2(C)[C@H]3C(=O)C=C4[C@@H]5C[C@@](C)(C(=O)O)CC[C@]5(C)CC[C@@]4(C)[C@]3(C)CC[C@@H]12 [Glycyrrhizinic acid],–,1.86,–
COc1ccc([C@@H]2CC(=O)c3c(O)cc(O)cc3O2)cc1O [Hesperetin],–,–,fold induction at 100 µM [3]: 3.06
COc1ccc(-c2oc3c(CC=C(C)C)c(O[C@@H]4O[C@H](CO)[C@@H](O)[C@H](O)[C@H]4O)cc(O)c3c(=O)c2O[C@@H]2O[C@@H](C)[C@H](O)[C@@H](O)[C@H]2O)cc1 [Icariin],3.33,–,–
COc1cc(-c2oc3cc(O)cc(O)c3c(=O)c2O)ccc1O [Isorhamnetin],–,–,fold induction at 100 µM [3]: 2.77
COc1cc2c(cc1O)CC[n+]1cc3c(OC)c(OC)ccc3cc1-2 [Jateorhizine],–,1.72,–
O=c1c(O[C@@H]2O[C@@H](CO)[C@H](O)[C@H]2O)c(-c2ccc(O)cc2)oc2cc(O)cc(O)c12 [Juglanin],2.95,–,–
O=c1c(O)c(-c2ccc(O)cc2)oc2cc(O)cc(O)c12 [Kaempferol],–,–,fold induction at 100 µM [3]: 3.26
"Nc1cccc2c1CN(C1CCC(=O)NC1=O)C2=O (stereo not drawn) [Lenalidomide, reference compound]",1.43,–,–
"COc1cc2nccc(Oc3ccc(NC(=O)NC4CC4)c(Cl)c3)c2cc1C(N)=O [Lenvatinib, reference compound]",–,–,fold induction at 100 µM [3]: 2.75
COc1cc(C(=O)OCCCCNC(=N)N)cc(OC)c1O [Leonurine],–,–,fold induction at 100 µM [3]: 1.51
O=C1C[C@@H](c2ccc(O)cc2)Oc2cc(O)ccc21 [Liquiritigenin],–,2.79,–
O=c1cc(-c2ccc(O)c(O)c2)oc2cc(O)cc(O)c12 [Luteolin],3.09,–,–
O[C@H]1[C@H]2c3cc4c(cc3CN3CCC(=C[C@@H]1O)[C@H]23)OCO4 [Lycorine],2.26,–,–
COc1ccc2c(c1O)-c1c(O)c(OC)cc3c1[C@H](C2)[N+](C)(C)CC3 [Magnoflorine],1.38,–,–
"CN(C)C(=N)N=C(N)N [Metformin, reference compound]",–,–,fold induction at 100 µM [3]: 2.45
O=c1c(O)c(-c2ccc(O)cc2O)oc2cc(O)cc(O)c12 [Morin],2.86,–,–
CC(C)=CCc1c(-c2ccc(O)cc2O)oc2c(CC=C(C)C)c(O)cc(O)c2c1=O [Mulberrin],–,3.74,–
O=c1c(O)c(-c2cc(O)c(O)c(O)c2)oc2cc(O)cc(O)c12 [Myricetin],–,–,fold induction at 100 µM [3]: 3.25
O=C1C[C@@H](c2ccc(O)cc2)Oc2cc(O)cc(O)c21 [Naringenin],–,–,fold induction at 100 µM [3]: 3.02
O=C1CCC[C@@H]2[C@H]3CCC[N+]4([O-])CCC[C@@H](CN12)[C@@H]34 (stereo partly drawn) [Oxymatrine],1.15,–,–
O[C@H]1CCN2Cc3ccccc3N=C12 [Peganine],–,1.34,–
C[C@H]1CC[C@@H]2N(C1)C[C@H]1[C@@H]3C[C@H]4[C@@H](C[C@H](O)[C@H]5C[C@@H](O)CC[C@@]54C)[C@@H]3CC[C@@H]1[C@]2(C)O [Peimine],–,1.31,–
Oc1ccc(-c2[o+]c3cc(O)cc(O)c3cc2O)cc1 [Pelargonidin],2.78,–,–
"CC(C)(S)[C@@H](N)C(=O)O [Penicillamine, reference compound]",–,–,fold induction at 100 µM [3]: 1.72
O=C(/C=C/C=C/c1ccc2c(c1)OCO2)N1CCCCC1 [Piperine],–,–,fold induction at 100 µM [3]: 1.8
"Nc1cccc2c1C(=O)N(C1CCC(=O)NC1=O)C2=O (stereo not drawn) [Pomalidomide, reference compound]",1.49,–,–

Molecule,fold induction at 100 µM [1],"Qdrug/Qctrl (TRIM31 mRNA expression level, drug group divided by control group) [2] [fold]",also measured
O=c1c(-c2ccc(O)cc2)coc2c([C@@H]3O[C@H](CO)[C@@H](O)[C@H](O)[C@H]3O)c(O)ccc12 [Puerarin],2.72,–,–
O=c1c(O)c(-c2ccc(O)c(O)c2)oc2cc(O)cc(O)c12 [Quercetin],3.38,–,–
"CNC(=O)c1cc(Oc2ccc(NC(=O)Nc3ccc(Cl)c(C(F)(F)F)c3)c(F)c2)ccn1 [Regorafenib, reference compound]",2.79,–,–
Oc1ccc(C=Cc2cc(O)cc(O)c2)cc1 [Resveratrol],–,–,fold induction at 100 µM [3]: 3.66
CC[C@H]1CN2CC[C@]3(C(=O)Nc4ccccc43)[C@@H]2C[C@@H]1/C(=C\OC)C(=O)OC [Rhynchophylline],–,–,fold induction at 100 µM [3]: 1.92
C[C@@H]1O[C@@H](OC[C@H]2O[C@@H](Oc3c(-c4ccc(O)c(O)c4)oc4cc(O)cc(O)c4c3=O)[C@H](O)[C@@H](O)[C@@H]2O)[C@H](O)[C@H](O)[C@H]1O [Rutin],2.86,–,–
O=c1cc(-c2ccc(O)cc2)oc2cc(O)c(O)c(O)c12 [Scutellarein],–,–,fold induction at 100 µM [3]: 3.2
COC(=O)C1=CO[C@@H](C)[C@H]2Cn3ccc4c5ccccc5nc-4c3C[C@H]12 [Serpentine],–,1.33,–
COc1cc(C2Oc3cc([C@H]4Oc5cc(O)cc(O)c5C(=O)[C@@H]4O)ccc3OC2CO)ccc1O (stereo partly drawn) [Silibinin],3.12,–,–
O=C1CCC[C@@H]2[C@H]3CCCN4CCC[C@@H](CN12)[C@@H]34 [Sophocarpidine],–,1.30,–
"CNC(=O)c1cc(Oc2ccc(NC(=O)Nc3ccc(Cl)c(C(F)(F)F)c3)cc2)ccn1 [Sorafenib, reference compound]",2.86,–,–
C[C@H](CCC(=O)NCCS(=O)(=O)O)[C@H]1CC[C@H]2[C@@H]3[C@H](O)C[C@@H]4C[C@H](O)CC[C@]4(C)[C@H]3CC[C@]12C [Taurochenodeoxycholic acid],–,2.51,–
"C[C@H](CCC(=O)NCCS(=O)(=O)O)[C@H]1CC[C@H]2[C@@H]3[C@@H](O)C[C@@H]4C[C@H](O)CC[C@]4(C)[C@H]3CC[C@]12C [Tauroursodeoxycholic acid, reference compound]",2.77,–,–
COc1cc2c(cc1OC)[C@@H]1Cc3ccc(OC)c(OC)c3CN1CC2 [Tetrahydropalmatine],–,–,fold induction at 100 µM [3]: 1.76
COc1ccc2cc1Oc1ccc(cc1)C[C@H]1c3cc(c(OC)cc3CCN1C)Oc1c(OC)c(OC)cc3c1[C@H](C2)N(C)CC3 [Tetrandrine],1.56,–,–
"O=C1CCC(N2C(=O)c3ccccc3C2=O)C(=O)N1 (stereo not drawn) [Thalidomide, reference compound]",–,–,fold induction at 100 µM [3]: 1.88
COc1cc(-c2cc(=O)c3c(O)cc(O)cc3o2)cc(OC)c1O [Tricin],–,–,fold induction at 100 µM [3]: 2.9
"C[C@H](CCC(=O)O)[C@H]1CC[C@H]2[C@@H]3[C@@H](O)C[C@@H]4C[C@H](O)CC[C@]4(C)[C@H]3CC[C@]12C [Ursodesoxycholic acid, reference compound]",2.85,–,–
COc1c(O)cc(O)c2c(=O)cc(-c3ccccc3)oc12 [Wogonin],3.05,–,–
O=c1cc(-c2ccc(O)c(O)c2)oc2cc(O[C@@H]3O[C@H](CO)[C@@H](O)[C@H](O)[C@H]3O)cc(O)c12 [luteolin 7-O-β-D-glucoside],–,2.83,–
Anthocyanidin,–,3.68,–
Breviscapine,–,3.29,–
Catechin,–,3.21,–
Cynarascoloside C,–,2.34,–
Orixine,–,1.69,–
Proanthocyanidin,–,3.12,–
Punicosides,–,2.64,–
